Test results reported in ChEMBL document CHEMBL1152691, “Design and synthesis of novel 2',3'-dideoxy-4'-selenonucleosides as potential antiviral agents” (Bioorg Med Chem, 2008).
Calls of active or inactive are those of the source. The rule behind the calls is not given here.

System: Human immunodeficiency virus
Test: Antiviral activity against HIV
Type: functional, organism-based

| SMILES | Activity |
| --- | --- |
| O=c1ccn([C@H]2CC[C@@H](CO)[Se]2)c(=O)[nH]1 | inactive |
| Cc1cn([C@H]2CC[C@@H](CO)[Se]2)c(=O)[nH]c1=O | inactive |
| Nc1ccn([C@H]2CC[C@@H](CO)[Se]2)c(=O)n1 | inactive |
